Source: PMC4943339 (Molecular pharmaceutics, 2015)

Assay: Pharmacokinetics of vancomycin after i.v. or pulmonary
Conditions: rabbits, 1 mg/kg i.v. bolus, plasma, LC/MS, non-compartmental, average ± S.D., n = 3; SD

CN[C@H](CC(C)C)C(=O)N[C@H]1C(=O)N[C@@H](CC(N)=O)C(=O)N[C@H]2C(=O)N[C@H]3C(=O)N[C@H](C(=O)N[C@H](C(=O)O)c4cc(O)cc(O)c4-c4cc3ccc4O)[C@H](O)c3ccc(c(Cl)c3)Oc3cc2cc(c3O[C@@H]2O[C@H](CO)[C@@H](O)[C@H](O)[C@H]2O[C@H]2C[C@](C)(N)[C@H](O)[C@H](C)O2)Oc2ccc(cc2Cl)[C@H]1O [vancomycin]
AUC(0-∞): 12135.34 ± 616.52 ng·h/mL
AUClast: 12069.85 ± 638.15 ng·h/mL
C0: 5347 ± 4927 ng/mL
Clearance: 1.376 ± 0.0708 mL/min/kg
Cmax: 3330 ± 1119 ng/mL
Half-Life: 3.38 ± 0.43 h
Tmax: 0.67 ± 0.29 h
Volume of Dist.: 0.40389 ± 0.06483 L/kg
